# Test results: article PMC7797697 (Theranostics, 2021)
# “And” between values parts separate entries of the source, which are not always exact repeats. Identical values can stand only once.
# Key:
# MDA-MB-231 cells [1] = test: High-content epigenetic inhibitor screen, quantification of living cells; assay type: cell-based, human; details: 3 μM, 72 h
# Source text: (§1) HeLa, MCF-7 and MDA-MB-231 cell lines were purchased from the American Type Culture Collection. MCF-10A, T-47D, PANC-1, A549, HCT-15, Caco-2, SMMC-7721, SH-SY5Y, HUVEC and PC-3 cell lines were obtained from the Chinese Academy of Medical Sciences. MEF was isolated from pregnant mice at 14‒16 days of pregnancy. Primary breast cancer cells were isolated from breast cancer patients. All media including Dulbecco Modified Eagle Medium (DMEM), RPMI 1640 Medium and DMEM/Nutrient Mixture F-12 were supplemented with 10% fetal bovine serum (FBS), 100 units/mL penicillin, and […] streptomycin (Gibco, Waltham, MA, USA). Cells were cultured in a humidified incubator equilibrated with 5% CO2 at 37 °C. Cells were treated for 24-72 h in adherent conditions with compounds from an epigenetic small molecule inhibitor library (L1200, Topscience, Shanghai, China).
# (§2) Statistical analyses of all data were performed using GraphPad Prism (version 8.0, Graph Pad Software Inc., San Diego, CA, USA). All the data were analyzed by Student's t-test or one-way ANOVA. The Z-Score was chosen to evaluate the results and experimental deviation. Quantitative data are presented as the mean ± SD. The asterisk (*) denotes statistically significant difference (P < 0.05). IC50 was calculated using a four-parameter fit with variable slope in GraphPad Prism.
# To identify potential anti-tumor inhibitors, we screened an epigenetic small molecule inhibitor library for anti-tumor activity in breast cancer cells. […] The selection strategy mainly comprised three stages, in which different concentrations (high to low) of inhibitors screened with a high-content analysis instrument were identified using cancer cell lines in a 96-well plate format (Figure 1A). For the first step, we treated cells with a high concentration of compounds to exclude compounds ineffective in killing cancer cells. MDA-MB-231 cells, a human breast cancer cell line, were treated with 167 epigenetic compounds (30 μM each) for 48 h, and then analyzed by high-content analysis, where changes in cell morphology relative to the control (dimethyl sulfoxide, DMSO) would indicate modulation of cancer cells by compound treatment. […] At the second step, we treated the cells with the 60 compounds at a median concentration (3 μM) for 72 h to screen for inhibitors that can kill cancer cells with high efficiency.
# MDA-MB-231 cells [2] = test: Intracellular calcium measurement (Fluo-4-AM); assay type: cell-based, human; details: thrombin stimulation, different concentrations of the pan-HDAC inhibitors
# Experimental: After treatment, the cells were digested and seeded in 96-well black plates (Corning Costar, Cambridge, MA, USA) and cultured for 20 h. For measurement of [Ca^2+]i, the cells were labeled with Fluo-4-AM in serum-free medium for half an hour at room temperature. After washing with Dulbecco's Phosphate Buffered Saline (D-PBS), cells were overlaid in Hank's balanced salt solution (5.4 mM KCl, 1 mM MgCl2, 20 mM hydroxyethyl piperazineethanesulfonic acid (HEPES), 120 mM NaCl, 10 mM glucose, 0.2 mM Ethylenebis(oxyethylenenitrilo)tetraacetic acid (EGTA)). Continuous fluorescence intensity was detected after thrombin was added as a calcium agonist by an automated sampler. Response over baseline was assessed as a relative measure of [Ca^2+]i.
# As previously stated, studies have shown that the Ca^2+ signals can modulate cancer progression by regulating migration, proliferation, cell stress, and apoptosis.
# MEF = test: CCK8 assay IC50; assay type: cell-based, mouse; details: normal cells, 72 h
# Source text: as §1
# (§3) Cell viability was then detected using a CCK8 assay (MedChemExpress, USA) according to the manufacturer's instructions.
# as §2, with “The asterisk (*) denotes statistically significant difference (P < 0.05).” left out
# [3] = system: Primary breast tumor cells; test: CCK8 assay IC50; assay type: cell-based, human; details: breast cancer, 72 h
# Source text: as §1, §3
# as §2, with “The asterisk (*) denotes statistically significant difference (P < 0.05).” left out
# HUVEC = test: CCK8 assay IC50; assay type: cell-based, human; details: normal cells, 72 h
# Experimental: as §3, §2
# MDA-MB-231 = test: CCK8 assay IC50; assay type: cell-based, human; details: MDA-MB-231, breast cancer, 72 h, CCK8
# Experimental: as §3, §2
# T-47D = test: CCK8 assay IC50; assay type: cell-based; details: breast cancer, 72 h
# Experimental: as §3, §2
# HCT-15 = test: CCK8 assay IC50; assay type: cell-based; details: HCT-15, colon cancer, 72 h
# Experimental: as §3, §2
# SMMC-7721 = test: CCK8 assay IC50; assay type: cell-based; details: SMMC-7721, liver cancer, 72 h
# Experimental: as §3, §2
# HeLa = test: CCK8 assay IC50; assay type: cell-based; details: cervical cancer, 72 h
# Experimental: as §3, §2
# Caco-2 = test: CCK8 assay IC50; assay type: cell-based; details: Caco-2, colon cancer, 72 h
# Experimental: as §3, §2
# PANC-1 = test: CCK8 assay IC50; assay type: cell-based; details: PANC-1, pancreatic cancer, 72 h
# Experimental: as §3, §2
# PC-3 = test: CCK8 assay IC50; assay type: cell-based; details: PC-3, prostatic cancer, 72 h
# Experimental: as §3, §2
# MCF-7 = test: CCK8 assay IC50; assay type: cell-based; details: MCF-7, breast cancer, 72 h, CCK8
# Experimental: as §3, §2
# A549 = test: CCK8 assay IC50; assay type: cell-based; details: A549, lung cancer, 72 h
# Experimental: as §3, §2
# SH-SY5Y = test: CCK8 assay IC50; assay type: cell-based; details: neuroblastoma, 72 h
# Experimental: as §3, §2
structure (smiles),measurement,setting,value
Cc1cc(Nc2nc(N[C@@H](C)c3ccc(F)cc3)c(C#N)cc2F)[nH]n1 [AZ960],effect on cell survival,MDA-MB-231 cells [1],discernible effects on cell survival
C#Cc1cccc(Nc2ncnc3cc(OC)c(OCCCCCCC(=O)NO)cc23)c1 [CUDC-101],effect on cell survival,MDA-MB-231 cells [1],discernible effects on cell survival
"CC(/C=C/C(=O)NO)=C\[C@@H](C)C(=O)c1ccc(N(C)C)cc1 [TSA, trichostatin A]",frequency and amplitude of [Ca^2+]i oscillations,MDA-MB-231 cells [2],did not alter the frequency and amplitude
same,IC50,MEF,< 1 µM and 0.891 µM
same,IC50,[3],2.31 µM
same,IC50,HUVEC,< 1 µM and 0.83 µM
same,IC50,MDA-MB-231,1 µM
same,IC50,T-47D,0.905 µM
same,IC50,HCT-15,2.3 µM
same,IC50,SMMC-7721,3.27 µM
same,IC50,HeLa,0.572 µM
same,IC50,Caco-2,3 µM
same,IC50,PANC-1,1.43 µM
same,IC50,PC-3,1.31 µM
same,IC50,MCF-7,0.922 µM
same,IC50,A549,1.31 µM
same,IC50,SH-SY5Y,0.72 µM
same,effect on cell survival,MDA-MB-231 cells [1],discernible effects on cell survival
O=C(/C=C/c1cccc(S(=O)(=O)Nc2ccccc2)c1)NO [belinostat],effect on cell survival,MDA-MB-231 cells [1],discernible effects on cell survival
Cc1[nH]c2ccccc2c1CCNCc1ccc(/C=C/C(=O)NO)cc1 [panobinostat],frequency and amplitude of [Ca^2+]i oscillations,MDA-MB-231 cells [2],did not alter the frequency and amplitude
CCCCc1nc2cc(/C=C/C(=O)NO)ccc2n1CCN(CC)CC [pracinostat],effect on cell survival,MDA-MB-231 cells [1],discernible effects on cell survival
O=C(CCCCCCC(=O)Nc1ccccc1)NO [vorinostat],frequency and amplitude of [Ca^2+]i oscillations,MDA-MB-231 cells [2],did not alter the frequency and amplitude
same,effect on cell survival,MDA-MB-231 cells [1],discernible effects on cell survival
